Results from patent US4997827A, “Compositions containing 5-α-dihydro-19-norethisterone and derivatives thereof for in vivo inhibition of aromatase” (Medical Foundation of Buffalo, Inc., priority 1989, dated 1991).
Entries after “also recorded” stand apart in the source; their conditions may differ.

Columns and labels:
rat ovarian aromatase = target: T1, rat ovarian aromatase (Rattus norvegicus, UniProt P22443); assay: in vivo effect on rat ovarian aromatase activity (3H-water method); details: for in vivo ovarian aromatase inactivation: Example 7, 50 mg/kg body weight/day, regularly cycling BUF/N rats, compared to sesame oil control; for suppression of the ovarian aromatase activity: 50 mg/kg body weight/day s.c. twice daily for four days, 4-day cycling BUF/N rats
T1 construct: from tissue; host or cells: ovaries of BUF/N inbred female rats, 105,000 x g precipitate of the homogenate
T1 sequence (P22443 1-508): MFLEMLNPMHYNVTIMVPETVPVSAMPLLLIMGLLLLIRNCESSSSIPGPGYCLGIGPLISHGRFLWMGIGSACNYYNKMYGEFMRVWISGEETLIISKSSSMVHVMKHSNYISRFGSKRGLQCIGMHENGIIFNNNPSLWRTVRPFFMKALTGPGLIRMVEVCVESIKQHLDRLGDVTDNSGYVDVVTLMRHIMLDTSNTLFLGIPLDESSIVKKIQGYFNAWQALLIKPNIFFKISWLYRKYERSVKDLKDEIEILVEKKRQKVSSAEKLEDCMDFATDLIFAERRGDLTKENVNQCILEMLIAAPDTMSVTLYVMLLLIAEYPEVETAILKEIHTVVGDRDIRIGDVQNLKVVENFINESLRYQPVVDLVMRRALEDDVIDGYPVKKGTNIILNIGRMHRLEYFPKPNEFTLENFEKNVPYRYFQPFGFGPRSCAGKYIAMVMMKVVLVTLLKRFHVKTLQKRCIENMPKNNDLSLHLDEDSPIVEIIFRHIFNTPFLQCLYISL
Protocol: 5α-DHNET (30 mg/ml sesame oil suspension) was injected s.c. twice daily for four days at a dose of 50 mg/kg body weight/day to BUF/N inbred female rats (50-80 days old) showing regular 4-day estrus cycles starting on the estrus day. The control group received injections of sesame oil in the same manner. Both ovaries were removed 3-4 hours after the final injection. The 105,000×g precipitate fraction of the ovarian homogenate was used for the aromatase assay. Aromatase activity was determined by the ^3 H-water method (F. L. Bellino, S. S. H. Gilani, S. S. Eng, Y. Osawa and W. L. Duax, Biochemistry, 15, 4730-4736 (1976)). The sedimented ovarian enzyme preparation was homogenized in 0.1 M phosphate buffer (pH 7.5) and incubated with [1β-^3 H, 4-^14 C]androstenedione (3.18×10^5 dpm ^3 H, 1.18×10^4 dpm ^14 C, 100.2 ng), NADPH (1 mg) and BSA (5 mg) in 0.1 M phosphate buffer (pH 7.5) in a total volume of 1.5 ml for 30 min at 37° C. Trichloroacetic acid solution (0.2 ml of 10% aqueous solution) was added to stop the enzyme reaction. Activated charcoal was added to the mixture and the spun supernatant was passed through a cotton plugged disposable pipet. The filtrate was counted for simultaneous ^3 H and ^14 C in a liquid scintillation spectrophotometer. The ^3 H-water released from the 1β-^3 H labeled androgen quantitatively corresponds to estrogen formation. The results of the in vivo aromatase suppression assay with 5α-DHNET, 6β-bromoandrostenedione (6β-BRA), and 6α-bromoandrostenedione (6α-BRA) are given in FIGS. 3, 4, and 5, respectively. 5α-DHNET suppressed 67% of the ovarian aromatase, whereas 6β-bromoandrostenedione suppressed 72% and 6α-bromoandrostenedione only an insignificant 10%.
A test of the acetate (C2) and n-butyrate (C4) on the in vivo effect on Ovarian Aromatase Activity was conducted. […] All procedures are the same as described in the above examples. […] The slightly better results obtained with the N-butyrate may be due to its higher solubility in sesame oil, indicating a higher retention in the body.

[1] = tested on: NMU-induced breast carcinomas of BUF/N rats; assay: effect on breast tumor incidence, protocol II; format: in vivo, rat
Protocol: The preventive and suppressive effect of 5α-DHNET on breast carcinomas was further examined in order to ascertain that this agent is effective under general conditions rather than limited to a specifically controlled protocol. Only a single dose of NMU was given to the BUF/N rats at 50th day of age and an oophorectomy was carried our at the 6th week after the NMU injection. The 5α-DHNET group received the agent for one week starting at the 6th week at a dose of 50 mg/kg body weight/day as given in FIG. 11. Monitoring was carried out as described in Example 4. After 41 weeks of observation, the tumor incidence was 65%, 33%, and 38% for the control, 5α-DHNET, and OVX group, respectively. The average number of tumors per tumor carrying rat was 2.6, 1.5, and 1.0 for the control, 5α-DHNET, and OVX group, respectively.

[2] = tested on: NMU-induced breast carcinomas of BUF/N rats; assay: effect on growth of NMU-induced breast carcinomas; format: in vivo, rat
Protocol: (§1) The animal model for human mammary carcinomas developed by Gullino et al. (P. M. Gullino, H. M. Pettigrew, and F. H. Grantham, J. Natl. Cancer Inst., 54, 401-414 (1975)) was used for this evaluation of 5α-DHNET.N-Nitrosomethylurea (NMU), wet with 3% acetic acid, was dissolved in distilled water (10 mg/ml) and given in three intravenous injections at a dose of 50 mg/kg body weight to BUF/N inbred female rats of 50 days of age on the first injection. The second injection was 4 weeks and the third injection was 8 weeks after the initial administration. The onset of tumors was monitored by daily visual inspection and by palpation of the mammary regions three times a week. The increase in tumor size was monitored by vernier caliper measurements of the subcutaneous mass. One-half the average of the longest and shortest tumor diameters was taken as the value of r in the formula 4/3 πr^3 used to estimate tumor volume. 5α-DHNET in sesame oil was given i.p. daily at a dose of 50 mg/kg body weight/day for 3 weeks to BUF/N female rats having at least one tumor, 2 cm or larger. The number and size of the rumors were monitored on 12 treated and 13 vehicle-only control animals. The mean initial volume of the tumors was 5.10 and 5.53 ml for the control and treated group, respectively. While the tumors in the control group grew very rapidly, growth arrest was clearly observed in 75% (9/12) of the treated group. The death rate was lower in the treated group (3/12 in 4 weeks) than in the control (5/13 in 3 weeks). […] Averaged relative tumor volume is compared in FIG. 7. This also indicates the suppression of tumor growth by the 5α-DHNET treatment. While 24 new tumors developed in 9 control rats in 3 weeks, only 7 developed in 11 treated rats.

[3] = rat, in vivo
SD rat (SPF) = assay: minimum lethal dose in SD rat; format: in vivo
Protocol: For example, the minimum lethal dose of 5α-DHNET for SD rat (SPF) is greater than 5,000 mg/kg.

[4] = tested on: human placental aromatase; assay: in vitro assay with human placental aromatase; format: biochemical; details: in vitro assays
Protocol: 5α-DHNET was previously found to be a very weak in vitro aromatase inhibitor (Y. Osawa, Y. Osawa, C. Yarborough & L. Borzynski, Biochem Soc. Transactions, 656-659 (1983)), requiring a 50 μM concentration for a partial inhibition of human placental aromatase in vitro.

[5] = tested on: NMU-induced breast carcinomas of BUF/N rats; assay: effect on breast tumor incidence, protocol III; format: in vivo, rat
Protocol: The protocol was further modified to evaluate the generality of the effect of 5α-DHNET on breast carcinomas. […] Oophorectomy was also carried out at 3 weeks after the NMU injection. After 37 weeks of monitoring, the tumor incidence was 87%, 38%, and 19% for the control, 5α-DHNET,and OVX group, respectively. The average number of tumors per tumor carrying animal was 2.8, 1.5 and 1.0 for the central, 5α-DHNET, and OVX group, respectively.

[6] = tested on: human placental aromatase; details: cited from earlier work; for concentration for inhibition of human placental aromatase in vitro: for 5α-DHNET a partial inhibition
[7] = tested on: estrus cycle of BUF/N inbred female rats; assay: effect on the rat estrus cycle; format: in vivo; details: for effect on the estrus cycle: single s.c. dose 50 mg/kg body weight on proestrus day
Protocol: BUF/N inbred female rats (50-80 days old) showing regular 4-day estrus cycles were selected by a daily vaginal smear test. A fine powder of the steroid sample was suspended in sesame oil (30 mg/ml) and injected subcutaneously on the proestrus day at a single dose of 50 mg/kg body weight. Vaginal smears were examined daily until normal estrus returned for at least three cycles. The results from the single injection of 5α-DHNET are given in FIG. 1 and those for 6β-bromoandrostenedione are given in FIG. 2 for comparison.

[8] = tested on: NMU-induced breast carcinomas of BUF/N rats; assay: preventive effect on incidence of NMU-induced breast carcinoma, first protocol; format: in vivo, rat
Protocol: as §1
The preventive effect of 5α-DHNET to lower the incidence of breast carcinoma was assessed by use of the same animal model as in Example 3 but by modification of the administration protocol. The vehicle-only control was prepared as described in Example 3. Oophorectomy was carried out at the 4th week. 5α-DHNET at a dose of 50 mg/kg body weight/day was given i.p. daily for one week starting at the 4th week. The onset of tumors, their number and location in each animal were recorded daily. The results are given in FIGS. 9 and 10 and in Table 2. The control group developed tumors in 100% (16/16) of the animals by the 98th day after the first NMU injection. At this point tumor incidence for the 5α-DHNET treated and oophorectomized groups was 13% (2/16) and 38% (6/16), respectively. […] At the 180th day the death rate for the 5α-DHNET treated and oophorectomized group was 25% and 31%, respectively, compared to 69% for the control group. The mean latent period of tumor development was 72, 101, and 116 days for the control, OVX, and 5α-DHNET group, respectively.

C#C[C@]1(OC(C)=O)CC[C@H]2[C@@H]3CC[C@H]4CC(=O)CC[C@@H]4[C@H]3CC[C@@]21C [5α-DHNET Ac, 5α-DHNET acetate]
in vivo ovarian aromatase inactivation (rat ovarian aromatase): 68.2%

C#C[C@]1(OC(=O)CCC)CC[C@H]2[C@@H]3CC[C@H]4CC(=O)CC[C@@H]4[C@H]3CC[C@@]21C [5α-DHNET But, 5α-DHNET butyrate]
in vivo ovarian aromatase inactivation (rat ovarian aromatase): 79.4%

C#C[C@]1(O)CC[C@H]2[C@@H]3CC[C@H]4CC(=O)CC[C@@H]4[C@H]3CC[C@@]21C [5α-DHNET, 5α-dihydro-19-norethisterone]
tumor incidence ([1]; after 41 weeks, single NMU dose, 50 mg/kg/day for one week from 6th week): 33% | average number of tumors per tumor carrying rat ([1]; protocol II): 1.5 | effect on growth of breast carcinomas ([2]; 50 mg/kg body weight/day daily for three weeks): significantly suppressed the growth of breast carcinomas | animals with growth arrest of tumors ([2]; 50 mg/kg body weight/day i.p. for 3 weeks, 9/12 treated): 75% | death rate ([2]; 50 mg/kg body weight/day i.p. for 3 weeks, in 4 weeks): 3/12 | initially observed tumors disappeared ([2]; 3 week period, 6/47): 13% | tumors regressed ([2]; 3 week period, 20/48): 42% | tumors growing ([2]; 3 week period, 28/48): 58% | Total No. of Tumors disappeared ([2]; 3 wk): 6 | Total No. of Tumors growing ([2]; 3 wk): 28 | Total No. of Tumors regressed ([2]; 3 wk): 20 | share of responded animals maintained without a growth of tumors after stopping administration ([2]; another 3 weeks after stopping): approximately half | Total No. of Tumors 3 wk ([2]; end of 3 wk treatment, 11 rats): 48 | Total No. of Tumors newly developed ([2]; in 3 weeks, 11 treated rats): 7 | Total No. of Tumors start ([2]; start of treatment, 11 rats): 47 | body weight compared to control rats [3]: did not show any significant difference of body weight from the control rats | suppression of the ovarian aromatase activity (rat ovarian aromatase): 67% | in vivo ovarian aromatase inactivation (rat ovarian aromatase): 67.9% | minimum lethal dose (SD rat (SPF)): greater than 5,000 mg/kg | potency as aromatase inhibitor relative to 6α- and 6β-bromoandrostenedione [4]: thousand-fold less potent | tumor incidence ([5]; after 37 weeks, treatment 3 weeks after single NMU dose): 38% | average number of tumors per tumor carrying animal ([5]; protocol III): 1.5 | concentration for inhibition of human placental aromatase in vitro [6]: 50 µM | in vitro aromatase inhibitory activity ([6]; previous in vitro studies): essentially inactive | animals with cessation of estrus cycles / animals tested ([7]; single s.c. dose 50 mg/kg body weight): 4/4 | effect on the estrus cycle [7]: cessation of the estrus cycles for at least four cycles | tumor incidence ([8]; 98th day after first NMU injection, 50 mg/kg/day i.p. one week from 4th week, 2/16): 13% | death rate ([8]; 180th day after first NMU injection, 4/16): 25% | % Tumor Incidence ([8]; 180th day after first NMU injection, 8/16): 50% | effect on incidence of breast carcinoma and death rate ([8]; Examples 4-6, given at different times): significantly lower the incidence of breast carcinoma and the death rate as effectively as complete oophorectomy | Average No. of tumors per tumor-carrying rat ([8]; first protocol): 1.8 | Mean Latent Period of tumor development ([8]; first protocol): 116 days

C[C@]12CCC(=O)C=C1[C@@H](Br)C[C@@H]1[C@@H]2CC[C@]2(C)C(=O)CC[C@@H]12 [6α-bromoandrostenedione, reference compound]
suppression of the ovarian aromatase activity (rat ovarian aromatase): 10% | concentration for inhibition of human placental aromatase in vitro [6]: 0.0082 µM

C[C@]12CCC(=O)C=C1[C@H](Br)C[C@@H]1[C@@H]2CC[C@]2(C)C(=O)CC[C@@H]12 [6β-bromoandrostenedione, reference compound]
suppression of the ovarian aromatase activity (rat ovarian aromatase): 72% | concentration for inhibition of human placental aromatase in vitro [6]: 0.056 µM | effect on the estrus cycle ([7]; 50 mg/kg): no effect on the cycle; also recorded: failed to affect the estrus cycle
